Measurements published in PMC7756341, “Liposomal FRET Assay Identifies Potent Drug‐Like Inhibitors of the Ceramide Transport Protein (CERT)” (Chemistry (Weinheim an Der Bergstrasse, Germany), 2020).

Target: T1, CERT (Homo sapiens, UniProt Q9Y5P4)
T1 construct: made in house; host or cells: E. coli BL21 (DE3), pET-28a(+)
T1 sequence (Q9Y5P4 1-598 isoform Q9Y5P4-2): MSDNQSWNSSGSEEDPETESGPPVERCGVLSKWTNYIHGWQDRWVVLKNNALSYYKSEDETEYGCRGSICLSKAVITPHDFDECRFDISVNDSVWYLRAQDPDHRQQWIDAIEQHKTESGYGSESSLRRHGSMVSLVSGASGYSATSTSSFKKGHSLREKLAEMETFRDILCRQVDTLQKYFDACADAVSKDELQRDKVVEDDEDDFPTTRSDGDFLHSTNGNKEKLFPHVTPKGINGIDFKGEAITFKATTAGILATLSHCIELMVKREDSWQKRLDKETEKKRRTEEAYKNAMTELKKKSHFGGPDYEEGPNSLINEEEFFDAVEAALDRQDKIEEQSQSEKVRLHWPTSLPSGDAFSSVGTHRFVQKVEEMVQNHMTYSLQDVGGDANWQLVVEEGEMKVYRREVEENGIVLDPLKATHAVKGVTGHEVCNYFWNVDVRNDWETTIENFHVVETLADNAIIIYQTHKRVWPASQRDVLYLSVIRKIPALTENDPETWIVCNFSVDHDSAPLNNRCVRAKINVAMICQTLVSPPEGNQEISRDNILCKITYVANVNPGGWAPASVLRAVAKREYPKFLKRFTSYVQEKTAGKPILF
Test: NR-ceramide fluorescence competition assay
Format: binding
Details: 1 μM Nile red ceramide
Source text: Having the identified hits from CERT-transfer assay, we were interested in further understanding the relationship between the CERT-transfer inhibitory activity and CERT-binding affinity. With this goal in mind, we have developed a homogenous competitive assay based on the binding of fluorescently-labeled ceramide to CERT-protein (Fig S6). It’s well known that Nile Red is […]
than in hydrophilic one. Based on this knowledge, we have designed a fluorescently-labeled probe in which the Nile Red-tag was incorporated into the ceramide fatty acid moiety. The NR-ceramide […]
excellent signal-to-noise ratio (28-fold, Fig S7.A). Equilibration takes ~1h of incubation at 30°C.
Furthermore, this assay is a simple mix-and read format and uses only low amounts of fluorophore (1µM) and CERT-protein (12.5µg/assay).
The assay was performed in non-binding black-bottom 96-well microplate (Greiner Bio-One). To each well was added 1µL HPA12 (final concentration 2.5µM) or DMSO, followed by 98 µL of the CERT aliquot (12.5µg/well). After the mixture was incubated for 40 min at 30°C, 1µL NR-ceramide (final concentration 1µM) was added. Controls were triplicates of 10mM Tris.HCl buffer (pH 7.4, 250 mM sucrose) with 2µL DMSO, CERT aliquot (12.5µg/well) with 2µL DMSO, and 1µL NR-ceramide (final concentration 1µM) in 10mM Tris.HCl buffer (pH 7.4, 250 mM sucrose) with 1µL DMSO. The plate was then sealed with transparent Thermowell seal tape and placed in the microplate reader (LABTECH) at 30°C with shaking. The fluorescence was measured from the top over 80min (number of cycles 35, delay 70 sec) with excitation filter 540 nm and emission filter 640 nm. The competitive CERT-binding activity was calculated using the formula: Ix = I(À2-Y)/I0(À1-X), where À1 is the average of the florescence of the control of NR-ceramide in Tris.HCl buffer, X is the average of the fluorescence of the buffer alone, À2 is the fluorescence average of the assay mixture, Y is the fluorescence average of the CERT aliquot with inhibitor/DMSO (Fig […]
It is however lower than the differentiation in the transfer assay (Fig S8B).
3.2 High throughput screening for CERT-activity and Data analysis
In order to validate the performance of developed assay in high-throughput screening format, the hits from ‘confirmed-hit group’ (45 hits) were screened for their competitive CERT-binding activity. The assay was performed as mentioned in the previous sub-section 3.1. Briefly, 1µL tested compound (final concentration 1µM, 2.5µM, 5µM, 10µM) or DMSO for control, and 98 µL CERT stock solution were sequentially added into a non-binding 96-well microplate. The plate was sealed and incubated at 30°C for 40 min, before 1µL NR-ceramide (final concentration 1µM) was added.
Controls per plate were triplicates of 10mM Tris.HCl buffer (pH 7.4, 250 mM sucrose) with 2µL DMSO, CERT aliquot (12.5µg/well) with 2µL DMSO, 1µL NR-ceramide (final concentration 1µM) in 10mM Tris.HCl buffer (pH 7.4, 250 mM sucrose), and HPA12 as a reference inhibitor (final concentration of 1µM, and 2.5µM, 5µM). The plate was sealed with transparent Thermowell seal tape and the assay was allowed to proceed as described above using excitation filter 540 nm and emission filter 640 nm. The competitive CERT-binding activity was calculated using the formula: Ix = I(À2-Y)/I0(À1-X), where À1 is the average of the florescence of the control 1µL NR-ceramide in Tris.HCl buffer, X is the average of the fluorescence of the buffer alone, À2 is the average of the fluorescence of assay mixture treated with tested compound or DMSO, Y is the average of the fluorescence of CERT aliquot with inhibitor/DMSO.

- activity in the NR ceramide competition assay: much less pronounced
SMILES: CCCCCCCCCCCC(=O)NC(CO)CC(O)c1ccccc1 (single isomer, unassigned) [R,R diastereomer of HPA‐12, N-(3Hydroxy-1-hydroxymethyl-3-phenylpropyl)-dodecamide]
